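Method: 48-hour compound exposure of cells in 96-well plates, five concentrations, linear interpolation of endpoints. The concentration for 50% growth inhibition is given as GI50. At the TGI there is no net growth.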
How the values were obtained:
Assay in all cases: DTP human tumour cell line panel, 48 h
786-0 renal = system: 786-0 renal
A498 renal = system: A498 renal
A549 NSCLC = system: A549 NSCLC
ACHN renal = system: ACHN renal
BT-549 breast = system: BT-549 breast
CAKI-1 renal = system: CAKI-1 renal
CCRF-CEM leukemia = system: CCRF-CEM leukemia
COLO 205 colon = system: COLO 205 colon
DU-145 prostate = system: DU-145 prostate
EKVX NSCLC = system: EKVX NSCLC
HCC-2998 colon = system: HCC-2998 colon
HCT-116 colon = system: HCT-116 colon
HCT-15 colon = system: HCT-15 colon
HL-60(TB) leukemia = system: HL-60(TB) leukemia
HOP-62 NSCLC = system: HOP-62 NSCLC
HOP-92 NSCLC = system: HOP-92 NSCLC
HS 578T breast = system: HS 578T breast
HT29 colon = system: HT29 colon
IGROV1 ovarian = system: IGROV1 ovarian
K-562 leukemia = system: K-562 leukemia
KM12 colon = system: KM12 colon
LOX IMVI melanoma = system: LOX IMVI melanoma
M14 melanoma = system: M14 melanoma
MALME-3M melanoma = system: MALME-3M melanoma
MCF7 breast = system: MCF7 breast
MDA-MB-231 breast = system: MDA-MB-231 breast
MDA-MB-435 = system: MDA-MB-435
MOLT-4 leukemia = system: MOLT-4 leukemia
NCI-H226 lung = system: NCI-H226 lung
NCI-H23 lung = system: NCI-H23 lung
NCI-H460 lung = system: NCI-H460 lung
NCI-H522 lung = system: NCI-H522 lung
NCI/ADR-RES ovarian = system: NCI/ADR-RES ovarian
OVCAR-3 ovarian = system: OVCAR-3 ovarian
OVCAR-4 ovarian = system: OVCAR-4 ovarian
OVCAR-5 ovarian = system: OVCAR-5 ovarian
OVCAR-8 ovarian = system: OVCAR-8 ovarian
PC-3 prostate = system: PC-3 prostate
RPMI-8226 leukemia = system: RPMI-8226 leukemia
SF-268 CNS = system: SF-268 CNS
SF-295 CNS = system: SF-295 CNS
SF-539 CNS = system: SF-539 CNS
SK-MEL-2 melanoma = system: SK-MEL-2 melanoma
SK-MEL-28 melanoma = system: SK-MEL-28 melanoma
SK-MEL-5 melanoma = system: SK-MEL-5 melanoma
SK-OV-3 ovarian = system: SK-OV-3 ovarian
SN12C renal = system: SN12C renal
SNB-19 CNS = system: SNB-19 CNS
SNB-75 CNS = system: SNB-75 CNS
SR leukemia = system: SR leukemia
SW-620 colon = system: SW-620 colon
T-47D breast = system: T-47D breast
TK-10 renal = system: TK-10 renal
U251 CNS = system: U251 CNS
UACC-257 melanoma = system: UACC-257 melanoma
UACC-62 melanoma = system: UACC-62 melanoma
UO-31 renal = system: UO-31 renal

Molecule `CN1CCN(c2ccc(Nc3nc(NCCCNS(=O)(=O)c4cccc(F)c4)c4sccc4n3)cc2)CC1` has a GI50 (786-0 renal) of 2.47 µM, a TGI (786-0 renal) of 6.25 µM and a GI50 (A498 renal) of 10.9 µM. For the same molecule, the TGI (A498 renal) was 23 µM, the GI50 (A549 NSCLC) was 10 µM and the TGI (A549 NSCLC) was 23.7 µM. It also gave a GI50 (ACHN renal) of 4.49 µM, a TGI (ACHN renal) of 16.2 µM and a GI50 (BT-549 breast) of 8.19 µM. The TGI (BT-549 breast) was 23.9 µM, the GI50 (CAKI-1 renal) was 10.8 µM and the TGI (CAKI-1 renal) was 22.6 µM. The GI50 (CCRF-CEM leukemia) was 3.99 µM, the TGI (CCRF-CEM leukemia) was greater than 100 µM and the GI50 (COLO 205 colon) was 3.61 µM. It also gave a TGI (COLO 205 colon) of 16.1 µM, a GI50 (DU-145 prostate) of 10.5 µM and a TGI (DU-145 prostate) of 23 µM. For the same molecule, the GI50 (EKVX NSCLC) was 9.48 µM, the TGI (EKVX NSCLC) was 21.3 µM and the GI50 (HCC-2998 colon) was 4.35 µM. The TGI (HCC-2998 colon) was 15.5 µM, the GI50 (HCT-116 colon) was 3.73 µM and the TGI (HCT-116 colon) was 16.4 µM. It also gave a GI50 (HCT-15 colon) of 2.18 µM, a TGI (HCT-15 colon) of 6.88 µM and a GI50 (HL-60(TB) leukemia) of 1.78 µM. It also gave a TGI (HL-60(TB) leukemia) of 3.74 µM, a GI50 (HOP-62 NSCLC) of 14.8 µM and a TGI (HOP-62 NSCLC) of 29 µM. The GI50 (HOP-92 NSCLC) was 3.37 µM, the TGI (HOP-92 NSCLC) was 17.1 µM and the GI50 (HS 578T breast) was 3.72 µM. The TGI (HS 578T breast) was 34.4 µM, the GI50 (HT29 colon) was 2.18 µM and the TGI (HT29 colon) was 5.14 µM. It also gave a GI50 (IGROV1 ovarian) of 7.33 µM, a TGI (IGROV1 ovarian) of 20.9 µM and a GI50 (K-562 leukemia) of 1.43 µM. The TGI (K-562 leukemia) was 9.8 µM, the GI50 (KM12 colon) was 10.8 µM and the TGI (KM12 colon) was 40.5 µM. It also gave a GI50 (LOX IMVI melanoma) of 1.74 µM, a TGI (LOX IMVI melanoma) of 3.58 µM and a GI50 (M14 melanoma) of 1.78 µM. For the same molecule, the TGI (M14 melanoma) was 3.69 µM, the GI50 (MALME-3M melanoma) was 1.8 µM and the TGI (MALME-3M melanoma) was 3.25 µM. For the same molecule, the GI50 (MCF7 breast) was 3.52 µM, the TGI (MCF7 breast) was 14.3 µM and the GI50 (MDA-MB-231 breast) was 3.54 µM. It also gave a TGI (MDA-MB-231 breast) of 12.7 µM, a GI50 (MDA-MB-435) of 3.01 µM and a TGI (MDA-MB-435) of 11.3 µM. The GI50 (MOLT-4 leukemia) was 1.34 µM, the TGI (MOLT-4 leukemia) was 12.8 µM and the GI50 (NCI-H226 lung) was 6.63 µM. It also gave a TGI (NCI-H226 lung) of 20.1 µM, a GI50 (NCI-H23 lung) of 11.7 µM and a TGI (NCI-H23 lung) of 25.7 µM. The GI50 (NCI-H460 lung) was 3.81 µM, the TGI (NCI-H460 lung) was 14.6 µM and the GI50 (NCI-H522 lung) was 3.2 µM. It also gave a TGI (NCI-H522 lung) of 14.1 µM, a GI50 (NCI/ADR-RES ovarian) of 13.9 µM and a TGI (NCI/ADR-RES ovarian) of 38.5 µM. It also gave a GI50 (OVCAR-3 ovarian) of 3.59 µM, a TGI (OVCAR-3 ovarian) of 15.3 µM and a GI50 (OVCAR-4 ovarian) of 3.45 µM. It also gave a TGI (OVCAR-4 ovarian) of 14.7 µM, a GI50 (OVCAR-5 ovarian) of 10.2 µM and a TGI (OVCAR-5 ovarian) of 22.3 µM. It also gave a GI50 (OVCAR-8 ovarian) of 5.67 µM, a TGI (OVCAR-8 ovarian) of 23.2 µM and a GI50 (PC-3 prostate) of 6.87 µM. The TGI (PC-3 prostate) was 25.1 µM, the GI50 (RPMI-8226 leukemia) was 2.85 µM and the TGI (RPMI-8226 leukemia) was 13.9 µM. The GI50 (SF-268 CNS) was 6.41 µM, the TGI (SF-268 CNS) was 24.9 µM and the GI50 (SF-295 CNS) was 3.74 µM. For the same molecule, the TGI (SF-295 CNS) was 13.8 µM, the GI50 (SF-539 CNS) was 1.67 µM and the TGI (SF-539 CNS) was 3.18 µM. The GI50 (SK-MEL-2 melanoma) was 12.8 µM, the TGI (SK-MEL-2 melanoma) was 25.9 µM and the GI50 (SK-MEL-28 melanoma) was 1.61 µM. For the same molecule, the TGI (SK-MEL-28 melanoma) was 3.08 µM, the GI50 (SK-MEL-5 melanoma) was 3.49 µM and the TGI (SK-MEL-5 melanoma) was 12 µM. For the same molecule, the GI50 (SK-OV-3 ovarian) was 17.3 µM, the TGI (SK-OV-3 ovarian) was 32.3 µM and the GI50 (SN12C renal) was 11.5 µM. For the same molecule, the TGI (SN12C renal) was 23.8 µM, the GI50 (SNB-19 CNS) was 7.7 µM and the TGI (SNB-19 CNS) was 20.2 µM. The GI50 (SNB-75 CNS) was 11.5 µM, the TGI (SNB-75 CNS) was 23.9 µM and the GI50 (SR leukemia) was 1.79 µM. The TGI (SR leukemia) was 5.5 µM, the GI50 (SW-620 colon) was 4.12 µM and the TGI (SW-620 colon) was 17.2 µM. The GI50 (T-47D breast) was 10.9 µM, the TGI (T-47D breast) was 31.1 µM and the GI50 (TK-10 renal) was 14.5 µM. For the same molecule, the TGI (TK-10 renal) was 28.2 µM, the GI50 (U251 CNS) was 3.31 µM and the TGI (U251 CNS) was 13.5 µM. It also gave a GI50 (UACC-257 melanoma) of 1.86 µM, a TGI (UACC-257 melanoma) of 3.81 µM and a GI50 (UACC-62 melanoma) of 2.46 µM. The TGI (UACC-62 melanoma) was 7.07 µM, the GI50 (UO-31 renal) was 10.1 µM and the TGI (UO-31 renal) was 21.7 µM.
